In US11603387B2, “SOCS mimetics for the treatment of diseases” (UNIVERSITY OF FLORIDA RESEARCH FOUNDATION, INC., priority 2014, dated 2023):

Tested on: SOCS1+/+ or SOCS1+/− CD4+CD25− T cells
Test: CD4+ T cell activation (CD25 expressing cells, flow cytometry) after αCD3 stimulation
Assay type: cell-based, mouse
Conditions: αCD3 + SOCS1-KIR peptide (20 μM), 72 h
Protocol: FIGS. 5A-5D. […] (FIGS. 5A and 5B) SOCS1^+/+ or SOCS1^+/− CD4^+CD25^− T cells were stimulated with αCD3 antibodies alone or with αCD3+SOCS1-KIR peptide (20 μM) for 72 h. (FIG. 5A) CD25 expressing cells were assessed by flow cytometry. Results are representative of 4 independent experiments. (FIG. 5B) Proliferation was assessed by CFSE labeling and flow cytometry, cell counts, and ^3[H] thymidine incorporation. n=4. (FIGS. 5C and 5D) SOCS1^+/+ or SOCS1^+/− CD4^+CD25^− T cells were placed under Th17 inducing conditions in the absence or presence of SOCS1-KIR peptide (20 μM) (FIG. 5C) IFNγ expression, relative to β-actin., was assessed by qPCR (left) and ELISA (right) (n=4). (FIG. 5D) pSTAT1 and STAT1 protein expressions were assessed by western blotting. […]
CD4^+ T cell proliferation was assessed by CFSE staining, ^3H thymidine incorporation, and absolute cell counts. […] After 72 h of incubation, cell cultures were either pulsed with 0.5 mCi ^3H thymidine (GE Healthcare; Arlington Heights, Ill.) or counted and harvested for assessment by flow cytometry. In cultures analyzed by flow cytometry, T lymphocytes were labeled with 10 μg/ml CFSE prior to culture as previously described (Cozzo et al. 2003). ^3H thymidine pulsed T lymphocytes were harvested 16-18 hours after initial pulse followed by the ^3H thymidine incorporation assessment using a Beckman LS3801 Liquid Scintillation System. […]

## DTHFRTFRSHSDYRRI (SOCS1-KIR peptide) [SOCS1 mimetic peptide corresponding to the KIR region of SOCS1]
SOCS1+/− CD4+ T lymphocytes
  αCD3 mediated CD25 up-regulation: sufficient to inhibit excessive αCD3 mediated CD25 up-regulation
WT (SOCS1+/+) CD4+ T lymphocytes
  CD25 expression: limited effects on CD25 expression
